{"source": "paper PMC7955127", "about": "“Preclinical small molecule WEHI-7326 overcomes drug resistance and elicits response in patient-derived xenograft models of human treatment-refractory tumors” (Cell Death & Disease, 2021)", "key": {"MDA-MB-231": {"test_system": "MDA-MB-231", "test": "Cell growth inhibition assay, MDA-MB-231", "assay_type": "cell-based", "settings": "Homo sapiens; MDA-MB-231, breast carcinoma; 72 h viability assay, CellTiterGlo; mean of 3 ± SEM; read-out: IC50 (inhibition of cellular proliferation)", "description": "(§1) Cells were plated at a density of between 500 to 5000 cells per well for adherent cell lines depending on doubling time, and 15,000 cells per well for lymphoblastic leukemia cell lines, in a 96-well plate in 200 μl of growth media. Plates were incubated overnight at 37 °C before adding the inhibitors. Inhibitors were serially diluted from the stock solutions in complete medium and added to the cells. Incubation in the presence of inhibitors was continued for 72 days. Cell viability was assessed by the AlamarBlue (Invitrogen) or CellTiterBlue/Glo (Promega) method according to manufacturer’s instructions. The curve fits and IC50 values were generated in PRISM (GraphPad, San Diego, CA)."}, "CEM dEpoB30": {"test_system": "CEM dEpoB30", "test": "Cell growth inhibition assay, CEM dEpoB30", "assay_type": "cell-based", "settings": "Homo sapiens; CEM dEpoB30, leukemia (taxane resistant, β-tubulin mutation); 72 h, Alamar Blue; mean of 3 ± SEM; read-out: IC50 (inhibition of cellular proliferation)", "description": "as §1, with “Incubation in the presence of inhibitors was continued for 72 days.” left out\nParental human lymphoblastic leukemia cells (CEM) and their drug resistant derivatives (dEpoB30 and dEpoB300) were cultured in the presence of increasing amounts of WEHI-7326, paclitaxel or epothilone B. Cell survival was determined as described in Experimental Procedures. Shown are mean of 3 experiments +/- SEM. Dose response curves were fitted in PRISM using non-linear regression (4 parameter logistic) to calculate IC50 values."}, "MH792 LUSC PDX": {"test_system": "MH792 LUSC PDX", "test": "LUSC PDX model MH792", "assay_type": "in vivo, NOD-SCID-IL2Rγc–/– mice", "description": "LUSC PDXs were generated as described in[25]. PDXs at passage 4 were defrosted and washed with PBS before counting. 200,000 to 500,000 cells were then injected in a 50:50 PBS:Matrigel mix into the flanks of NOD-SCID-IL2Rγc–/– male mice. Tumors were measured twice weekly with calipers and treatment started when tumors were between 70–120 mm^3. Mice were assigned to treatment groups based on average tumor volume per group. Mice were culled when tumors reached a volume of 600 mm^3."}, "[1]": {"test": "Fourteen day maximum tolerated dose study, twice weekly i.v. (non-GLP)", "assay_type": "in vivo", "description": "Fourteen day maximum tolerated dose (MTD) study of WEHI-7326 dihydrochloride following twice weekly intravenous administration in female Sprague-Dawley rats. All treatments were administered i.v. (tail vein) in a dosing volume of 10 mL/kg. Treatment was administered in a staggered manner, beginning with WEHI-7326 at 7.5 mg/kg and then increasing the dose on subsequent days. For all data calculations and presentation, the first day of treatment for each group is designated as Day 1. One animal died immediately following a single dose of WEHI-7326 at 60 mg/kg (Group 2). The remaining scheduled treatments at this dose were cancelled and dosing recommenced at a reduced dose of 10 mg/kg to the remaining 3 animals in this group. Intravenous (tail vein) treatment of female Sprague-Dawley rats with WEHI-7326 was tolerated without serious adverse events or body weight loss exceeding the ethical limit at doses of 7.5 and 10 mg/kg in this study.\nSixteen female Sprague-Dawley rats were microchipped and randomised into four groups of four based on body weight two days prior to the first day’s treatment. The test article was to be tested at four dose concentrations of 7.5 mg/kg, 15 mg/kg, 30 mg/kg and 60 mg/kg, administered i.v. via tail vein injection at a dose rate of 10 mL/kg. […] Animals were to be dosed on their respective Study Day 1, then twice weekly over two weeks. Body weights were measured once prior to dose administration, then daily for the duration of the study and at termination. Clinical observations were performed on a daily basis. Due to the immediate death of one animal dosed with WEHI-7326 at 60 mg/kg and subsequent development of signs of toxicity in animals that had received three doses at 15 mg/kg and two doses at 30 mg/kg, the dose level for the remaining three animals in Group 4 was reduced to 10 mg/kg (four doses). As treatment with WEHI-7326 was tolerated without serious adverse events or body weight loss exceeding the ethical limit at doses of 7.5 and 10 mg/kg in this study, the maximum tolerated dose was determined to be 10 mg/kg."}, "[2]": {"settings": "female rats, 7.5 mg/kg twice weekly i.v."}, "[3]": {"settings": "female rats, 10 mg/kg twice weekly i.v."}, "[4]": {"settings": "female rats, 15 mg/kg twice weekly i.v."}, "[5]": {"settings": "female rats, 30 mg/kg twice weekly i.v."}}}
{"smiles": "COc1ccc(CNc2nc(NCc3ccc(CN)cc3)nc(NN3CC(=O)NC3=O)n2)cc1", "note": "[WEHI-7326]", "values": [{"measurement": "IC50", "setting": "MDA-MB-231", "value": "24.4 ± 3.1", "unit": "nM"}, {"measurement": "IC50", "setting": "CEM dEpoB30", "value": "1.67 ± 0.04", "unit": "nM"}, {"measurement": "Adverse effects in treatment arm", "setting": "MH792 LUSC PDX; MH792 PDX mice, 20 mg/kg i.v. twice a week, n = 8–10", "value": "1 with hind limb paralysis after 4 weeks of treatment"}, {"measurement": "Median survival", "setting": "MH792 LUSC PDX; MH792 PDX, WEHI-7326 20 mg/kg i.v. biweekly, docetaxel 10 mg/kg i.p. once", "value": 34, "unit": "days"}, {"measurement": "Lethality", "setting": "[1]; female Sprague-Dawley rats, 60 mg/kg i.v.", "value": "acutely lethal"}, {"measurement": "Mild red staining right fore limb (number of animals)", "setting": "[1]; [2]", "value": "1/4"}, {"measurement": "No remarkable observation (number of animals)", "setting": "[1]; [2]", "value": "3/4"}, {"measurement": "Mild piloerection (number of animals)", "setting": "[1]; [3]", "value": "3/3"}, {"measurement": "Mild red staining of snout, fore limbs and/or head (number of animals)", "setting": "[1]; [3]", "value": "3/3"}, {"measurement": "Urine-stained fur (number of animals)", "setting": "[1]; [3]", "value": "1/3"}, {"measurement": "Discharge both eyes (number of animals)", "setting": "[1]; [4]", "value": "1/4"}, {"measurement": "Early termination (StudyDay 9) due to adverse clinical signs and excess body weight loss (number of animals)", "setting": "[1]; [4]", "value": "3/4"}, {"measurement": "Mild red staining of eyes and or head (number of animals)", "setting": "[1]; [4]", "value": "2/4"}, {"measurement": "Mild squinting both eyes (number of animals)", "setting": "[1]; [4]", "value": "1/4"}, {"measurement": "Mild/moderate hunched posture (number of animals)", "setting": "[1]; [4]", "value": "4/4"}, {"measurement": "Mild/moderate piloerection (number of animals)", "setting": "[1]; [4]", "value": "4/4"}, {"measurement": "Urine-stained fur (number of animals)", "setting": "[1]; [4]", "value": "1/4"}, {"measurement": "Early termination (StudyDay 5) due to adverse clinical signs and excess body weight loss (number of animals)", "setting": "[1]; [5]", "value": "4/4"}, {"measurement": "Mild excess salivation (number of animals)", "setting": "[1]; [5]", "value": "2/4"}, {"measurement": "Mild piloerection (number of animals)", "setting": "[1]; [5]", "value": "4/4"}, {"measurement": "Mild red staining of limbs, eyes, snout and or head (number of animals)", "setting": "[1]; [5]", "value": "4/4"}, {"measurement": "Mild squinting both eyes (number of animals)", "setting": "[1]; [5]", "value": "4/4"}, {"measurement": "Mild/moderate hunched posture (number of animals)", "setting": "[1]; [5]", "value": "4/4"}, {"measurement": "Mild/moderate labored breathing (number of animals)", "setting": "[1]; [5]", "value": "4/4"}, {"measurement": "Mild/moderate lethargy (number of animals)", "setting": "[1]; [5]", "value": "4/4"}, {"measurement": "Urine-stained fur (number of animals)", "setting": "[1]; [5]", "value": "4/4"}, {"measurement": "Found dead immediately after administration (number of animals)", "setting": "[1]; female rats, 60 mg/kg i.v., single dose", "value": "1/1"}, {"measurement": "MTD at 14 days", "setting": "[1]; rat, in vivo, iv, female Sprague-Dawley rats, twice weekly i.v., 14 day", "value": 10, "unit": "mg/kg"}]}
